In patent US20100113421A1, “NON-NUCLEOSIDE REVERSE TRANSCRIPTASE INHIBITORS” (priority 2006, published 2010) one finds IC95 data, which are given here for 32 compounds.

The first assay relates to HIV strain containing the Y181C mutation. The assay can be described thus: Spread assay, Y181C mutant strain. To be noted: Human immunodeficiency virus 1; spread assay, 10% FBS, Y181C mutant strain; read-out: CIC95. The format is cell-based. Here is the method: Assays for the inhibition of acute HIV-1 infection of T-lymphoid cells (alternatively referred to herein as the “spread assay”) were conducted in accordance with Vacca, J. P. et al., Proc. Natl. Acad. Sci. USA 1994, 91: 4096. The assays (using 10% FBS) tested for inhibition of wild type HIV-1 and of HIV strains containing the Y181C or K103N mutation. […] (Note that the compound of Example 6 was tested only up to a 833 nM concentration and the CIC95 value was determined to be >833 nM. The compound of Example 78 was not tested in the Y1818C assay.) The compounds of Examples 1 to 119 (including Examples 70A and 70B) had CIC95 values of less than 1000 nanomolar in the assay employing the K103N mutant strain. In an analogous assay employing a mutant strain containing both the K103N and Y181C mutations, the compounds of Examples 70A, 70B and 78-115 had CIC95 values of less than 1000 nanomolar.
In the case of `Cc1c(C(=O)N(C)Cc2ccc(Cl)cc2Cl)[nH]c(C(N)=O)c1S(=O)(=O)c1ccccc1` [Example 1, N-(2,4-Dichlorobenzyl)-N,3-dimethyl-4-(1-phenylsulfonyl)-1H-pyrrole-2,5-dicarboxamide], the IC95 was below 8 µM.

For the compound `Cc1c(C(=O)N(C)Cc2ccc(Cl)cc2Cl)[nH]c(C(N)=O)c1S(=O)(=O)c1cc(Cl)cc(Cl)c1` [Example 2, N-(2,4-Dichlorobenzyl)-4-[(3,5-dichlorophenyl)sulfonyl]-N,3-dimethyl-1H-pyrrole-2,5-dicarboxamide], the IC95 is below 8 µM.

On to `Cc1cc(C)cc(S(=O)(=O)c2c(C(N)=O)[nH]c(C(=O)N(C)Cc3ccccc3)c2C)c1` [Example 3, N-Benzyl-N,3-dimethyl-4-(3,5-dimethylphenylsulfonyl)-1H-pyrrole-2,5-dicarboxamide], for which the IC95 was below 8 µM.

As for `Cc1c(C(=O)N(C)Cc2ccc(F)cc2Cl)[nH]c(C(N)=O)c1S(=O)(=O)c1ccccc1` [Example 4, N-(2-Chloro-4-fluorobenzyl)-N,3-dimethyl-4-(phenylsulfonyl)-1H-pyrrole-2,5-dicarboxamide], the IC95 is below 8 µM.

For `Cc1c(C(=O)N(C)Cc2ccccc2Cl)[nH]c(C(N)=O)c1S(=O)(=O)c1cccc2ccccc12` [Example 5, N-(2-Chlorobenzyl)-N,3-dimethyl-4-(1-naphthylsulfonyl)-1H-pyrrole-2,5-dicarboxamide], the IC95 was below 8 µM.

Take `Cc1c(C(=O)N(C)Cc2ccccc2F)[nH]c(C(N)=O)c1S(=O)(=O)c1ccccc1` [Example 7, N-(2-fluorobenzyl)-N,3-dimethyl-4-(phenylsulfonyl)-1H-pyrrole-2,5-dicarboxamide]: the IC95 was below 8 µM.

In the case of `Cc1c(C(=O)N(C)Cc2ccccc2Cl)[nH]c(C(N)=O)c1S(=O)(=O)c1ccccc1` [Example 8, N-(2-chlorobenzyl)-N,3-dimethyl-4-(phenylsulfonyl)-1H-pyrrole-2,5-dicarboxamide], the IC95 was below 8 µM.

As to `Cc1c(C(=O)N(C)Cc2ccccc2Br)[nH]c(C(N)=O)c1S(=O)(=O)c1ccccc1` [Example 9, N-(2-bromobenzyl)-N,3-dimethyl-4-(phenylsulfonyl)-1H-pyrrole-2,5-dicarboxamide], the IC95 is below 8 µM.

As for `Cc1c(C(=O)N(C)Cc2cccc(Cl)c2)[nH]c(C(N)=O)c1S(=O)(=O)c1ccccc1` [Example 10, N-(3-chlorobenzyl)-N,3-dimethyl-4-(phenylsulfonyl)-1H-pyrrole-2,5-dicarboxamide], the IC95 was below 8 µM.

With `Cc1c(C(=O)N(C)Cc2ccc(Br)cc2)[nH]c(C(N)=O)c1S(=O)(=O)c1ccccc1` [Example 11, N-(4-bromobenzyl)-N,3-dimethyl-4-(phenylsulfonyl)-1H-pyrrole-2,5-dicarboxamide], the IC95 was below 8 µM.

Consider `Cc1c(C(=O)N(C)Cc2ccc(Cl)cc2F)[nH]c(C(N)=O)c1S(=O)(=O)c1ccccc1` [Example 12, N-(4-chloro-2-fluorobenzyl)-N,3-dimethyl-4-(phenylsulfonyl)-1H-pyrrole-2,5-dicarboxamide], for which the IC95 is below 8 µM.

Consider `Cc1c(C(=O)N(C)Cc2cccc(Cl)c2Cl)[nH]c(C(N)=O)c1S(=O)(=O)c1ccccc1` [Example 13, N-(2,3-dichlorobenzyl)-N,3-dimethyl-4-(phenylsulfonyl)-1H-pyrrole-2,5-dicarboxamide], for which the IC95 is below 8 µM.

For `Cc1c(C(=O)N(C)Cc2ccc(Cl)c(Cl)c2)[nH]c(C(N)=O)c1S(=O)(=O)c1ccccc1` [Example 14, N-(3,4-dichlorobenzyl)-N,3-dimethyl-4-(phenylsulfonyl)-1H-pyrrole-2,5-dicarboxamide], the IC95 is below 8 µM.

In the case of `Cc1c(C(=O)N(C)Cc2ccc(S(C)(=O)=O)cc2Cl)[nH]c(C(N)=O)c1S(=O)(=O)c1ccccc1` [Example 15, N-(2-chloro-4-methylsulfonylbenzyl)-N,3-dimethyl-4-(phenylsulfonyl)-1H-pyrrole-2,5-dicarboxamide], the IC95 is below 8 µM.

Take `Cc1c(C(=O)N(C)Cc2ccccc2F)[nH]c(C(N)=O)c1S(=O)(=O)c1cccc(F)c1` [Example 16, N-(2-fluorobenzyl)-N,3-dimethyl-4-(3-fluorophenylsulfonyl)-1H-pyrrole-2,5-dicarboxamide]: the IC95 is below 8 µM.

`Cc1c(C(=O)N(C)Cc2ccccc2Cl)[nH]c(C(N)=O)c1S(=O)(=O)c1cccc(F)c1` [Example 17, N-(2-chlorobenzyl)-N,3-dimethyl-4-(3-fluorophenylsulfonyl)-1H-pyrrole-2,5-dicarboxamide]: the IC95 was below 8 µM.

For `Cc1c(C(=O)N(C)Cc2ccc(Cl)cc2F)[nH]c(C(N)=O)c1S(=O)(=O)c1cccc(F)c1` [Example 18, N-(4-chloro-2-fluorobenzyl)-N,3-dimethyl-4-(3-fluorophenylsulfonyl)-1H-pyrrole-2,5-dicarboxamide], the IC95 was below 8 µM.

`Cc1c(C(=O)N(C)Cc2ccc(Cl)cc2Cl)[nH]c(C(N)=O)c1S(=O)(=O)c1cccc(F)c1` [Example 19, N-(2,4-dichlorobenzyl)-N,3-dimethyl-4-(3-fluorophenylsulfonyl)-1H-pyrrole-2,5-dicarboxamide]: the IC95 is below 8 µM.

In the case of `Cc1c(C(=O)N(C)Cc2ccccc2Cl)[nH]c(C(N)=O)c1S(=O)(=O)c1cccc(Cl)c1` [Example 20, N-(2-chlorobenzyl)-N,3-dimethyl-4-(3-chlorophenylsulfonyl)-1H-pyrrole-2,5-dicarboxamide], the IC95 is below 8 µM.

With `Cc1c(C(=O)N(C)Cc2ccc(Cl)cc2Cl)[nH]c(C(N)=O)c1S(=O)(=O)c1cccc(Cl)c1` [Example 21, N-(2,4-dichlorobenzyl)-N,3-dimethyl-4-(3-chlorophenylsulfonyl)-1H-pyrrole-2,5-dicarboxamide], the IC95 is below 8 µM.

Turning to `Cc1c(C(=O)N(C)Cc2ccccc2)[nH]c(C(N)=O)c1S(=O)(=O)c1cccc(C(F)(F)F)c1` [Example 22, N-benzyl-N,3-dimethyl-4-(3-trifluoromethylphenylsulfonyl)-1H-pyrrole-2,5-dicarboxamide], the IC95 is below 8 µM.

As to `Cc1c(C(=O)N(C)Cc2ccc(Cl)cc2Cl)[nH]c(C(N)=O)c1S(=O)(=O)c1cccc(C(F)(F)F)c1` [Example 23, N-(2,4-dichlorobenzyl)-N,3-dimethyl-4-(3-trifluoromethylphenylsulfonyl)-1H-pyrrole-2,5-dicarboxamide], the IC95 is below 8 µM.

Turning to `Cc1cc(C)cc(S(=O)(=O)c2c(C(N)=O)[nH]c(C(=O)N(C)Cc3ccccc3F)c2C)c1` [Example 24, N-(2-fluorobenzyl)-N,3-dimethyl-4-(3,5-dimethylphenylsulfonyl)-1H-pyrrole-2,5-dicarboxamide], the IC95 is below 8 µM.

On to `Cc1cc(C)cc(S(=O)(=O)c2c(C(N)=O)[nH]c(C(=O)N(C)Cc3ccccc3Cl)c2C)c1` [Example 25, N-(2-chlorobenzyl)-N,3-dimethyl-4-(3,5-dimethyiphenylsulfonyl)-1H-pyrrole-2,5-dicarboxamide], for which the IC95 is below 8 µM.

As to `Cc1cc(C)cc(S(=O)(=O)c2c(C(N)=O)[nH]c(C(=O)N(C)Cc3ccc(Cl)cc3F)c2C)c1` [Example 26, N-(4-chloro-2-fluorobenzyl)-N,3-dimethyl-4-(3,5-dimethylphenylsulfonyl)-1H-pyrrole-2,5-dicarboxamide], the IC95 is below 8 µM.

Take `Cc1cc(C)cc(S(=O)(=O)c2c(C(N)=O)[nH]c(C(=O)N(C)Cc3ccc(Cl)cc3Cl)c2C)c1` [Example 27, N-(2,4-dichlorobenzyl)-N,3-dimethyl-4-(3,5-dimethylphenylsulfonyl)-1H-pyrrole-2,5-dicarboxamide]: the IC95 is below 8 µM.

For the compound `Cc1c(C(=O)N(C)Cc2ccccc2)[nH]c(C(N)=O)c1S(=O)(=O)c1cc(F)cc(Cl)c1` [Example 28, N-benzyl-N,3-dimethyl-4-(3-chloro-5-fluorophenylsulfonyl)-1H-pyrrole-2,5-dicarboxamide], the IC95 is below 8 µM.

`Cc1c(C(=O)N(C)Cc2ccccc2F)[nH]c(C(N)=O)c1S(=O)(=O)c1cc(F)cc(Cl)c1` [Example 29, N-(2-fluorobenzyl)-N,3-dimethyl-4-(3-chloro-5-fluorophenylsulfonyl)-1H-pyrrole-2,5-dicarboxamide]: the IC95 was below 8 µM.

For `Cc1c(C(=O)N(C)Cc2ccccc2Cl)[nH]c(C(N)=O)c1S(=O)(=O)c1cc(F)cc(Cl)c1` [Example 30, N-(2-chlorobenzyl)-N,3-dimethyl-4-(3-chloro-5-fluorophenylsulfonyl)-1H-pyrrole-2,5-dicarboxamide], the IC95 was below 8 µM.

Consider `Cc1c(C(=O)N(C)Cc2ccc(Cl)cc2F)[nH]c(C(N)=O)c1S(=O)(=O)c1cc(F)cc(Cl)c1` [Example 31, N-(4-chloro-2-fluorobenzyl)-N,3-dimethyl-4-(3-chloro-5-fluorophenylsulfonyl)-1H-pyrrole-2,5-dicarboxamide], for which the IC95 was below 8 µM.

Regarding `Cc1c(C(=O)N(C)Cc2ccccc2)[nH]c(C(N)=O)c1S(=O)(=O)c1cc(Cl)cc(Cl)c1` [Example 32, N-benzyl-N,3-dimethyl-4-(3,5-dichlorophenylsulfonyl)-1H-pyrrole-2,5-dicarboxamide], the IC95 is below 8 µM.

The same assay, now with this note: spread assay, Y181C mutant strain; tested only up to a 833 nM concentration; read-out: CIC95.
As to `Cc1c(C(=O)N(C)Cc2ccccc2Cl)[nH]c(C(N)=O)c1S(=O)(=O)c1ccc2ccccc2c1` [Example 6, N-(2-Chlorobenzyl)-N,3-dimethyl-4-(2-naphthylsulfonyl)-1H-pyrrole-2,5-dicarboxamide], the IC95 was above 0.833 µM.
